# From ChEMBL document CHEMBL5518185, “Design, synthesis and antitumor activity of 4-arylamine substituted pyrimidine derivatives as noncovalent EGFR inhibitors overcoming C797S mutation” (Eur J Med Chem, 2024)
# Activity calls are given as the source filed them. The rule behind the calls is not given here.
# Legend:
# [1] = system: HCC827; experiment: Induction of apoptosis in human HCC827 cells assessed as late apoptotic cells at 30 nM measured after 24 hrs by annexin V/PI staining based flu cytometry analysis (reference value: 5.50%); format: functional
# [2] = target: RAF proto-oncogene serine/threonine-protein kinase (Homo sapiens) (UniProt P04049); experiment: Inhibition of c-RAF (unknown origin) by HTRF assay relative to control; settings: concentration not given here
# [3] = system: HCC827; experiment: Induction of apoptosis in human HCC827 cells assessed as viable cells at 30 nM measured after 24 hrs by annexin V/PI staining based flu cytometry analysis (reference value: 84.0%); format: functional; settings: read-out: Activity
# [4] = system: HCC827; experiment: Induction of cell cycle arrest in human HCC827 cells assessed as accumulation of cells at G0/G1 phase at 100 nM measured after 24 hrs by PI staining based flow cytometry analysis (reference value: 54.36%); format: functional
# [5] = system: HCC827; experiment: Inhibition of colony formation in human HCC827 cells at 100 nM measured after 14 days by crystal violet staining based analysis relative to control; format: functional; settings: HCC827, 336 h, time 14 day
# [6] = system: HCC827; experiment: Induction of apoptosis in human HCC827 cells assessed as activation of cleaved-caspase-3 level measured after 48 hrs by Western blot analysis; format: functional, cell-based; settings: dose 10-400 nM
# [7] = target: Mitogen-activated protein kinase; ERK1/ERK2 (Homo sapiens) (UniProt P27361+P28482); experiment: Inhibition of ERK1/2 phosphorylation (unknown origin) at 100 nM by Western blotting analysis; format: protein assay
# [8] = system: HCC827; experiment: Induction of apoptosis in human HCC827 cells assessed as necrotic cells at 30 nM measured after 24 hrs by annexin V/PI staining based flu cytometry analysis (reference value: 7.34%); format: functional
# [9] = target: Epidermal growth factor receptor (Homo sapiens, UniProt P00533, C797S/L858R/T790M); experiment: Inhibition of EGFR L858R/T790M/C797S triple mutant (unknown origin) preincubated for 10 mins followed by substrate addition and measured after 50 mins in presence of ATP by HTRF assay
# [10] = species: Homo sapiens; experiment: Inhibition of FGFR (unknown origin) by HTRF assay relative to control; settings: concentration not given here
# [11] = species: Homo sapiens; experiment: Inhibition of AKT phosphorylation (unknown origin) at 100 nM by Western blotting analysis
# [12] = system: A549; experiment: Antiproliferative activity against human A549 cells assessed as inhibition of cell growth measured after 72 hrs by MTT assay; format: functional, cell-based; settings: A549, 72 h
# [13] = target: Epidermal growth factor receptor (Homo sapiens, UniProt P00533); settings: dose 100.0 nM
# Description: Inhibition of EGFR phosphorylation (unknown origin) at 100 nM by Western blotting analysis
# [14] = Cytotoxicity against human 2BS cells assessed as inhibition of cell viability measured after 72 hrs by MTT assay; format: toxicity, cell-based
# [15] = system: HCC827; experiment: Induction of apoptosis in human HCC827 cells assessed as necrotic cells at 10 nM measured after 24 hrs by annexin V/PI staining based flu cytometry analysis (reference value: 7.34%); format: functional
# [16] = system: HCC827; experiment: Inhibition of colony formation in human HCC827 cells measured after 14 days by crystal violet staining based analysis; format: functional, cell-based; settings: HCC827, 336 h
# [17] = target: Epidermal growth factor receptor (Homo sapiens, UniProt P00533, C797S/EX19DEL/T790M); experiment: Inhibition of EGFR Del19/T790M/C797S triple mutant (unknown origin) preincubated for 10 mins followed by substrate addition and measured after 50 mins in presence of ATP by HTRF assay
# [18] = system: NCI-H1975; experiment: Antiproliferative activity against human NCI-H1975 cells assessed as inhibition of cell growth measured after 72 hrs by MTT assay; format: functional, cell-based; settings: NCI-H1975, 72 h
# [19] = system: HCC827; experiment: Induction of apoptosis in human HCC827 cells assessed as early apoptotic cells at 30 nM measured after 24 hrs by annexin V/PI staining based flu cytometry analysis (reference value: 3.2%); format: functional
# [20] = target: Serine/threonine-protein kinase mTOR (Homo sapiens) (UniProt P42345); experiment: Inhibition of mTOR (unknown origin) by HTRF assay relative to control; settings: concentration not given here
# [21] = system: HCC827; experiment: Induction of cell cycle arrest in human HCC827 cells assessed as accumulation of cells at G2/M phase at 10 nM measured after 24 hrs by PI staining based flow cytometry analysis (reference value: 16.83%); format: functional
# [22] = system: HCC827; experiment: Induction of apoptosis in human HCC827 cells assessed as activation of PARP level measured after 48 hrs by Western blot analysis; format: functional, cell-based; settings: dose 10-400 nM
# [23] = system: HCC827; experiment: Induction of apoptosis in human HCC827 cells assessed as late apoptotic cells at 100 nM measured after 24 hrs by annexin V/PI staining based flu cytometry analysis (reference value: 5.50%); format: functional
# [24] = target: Epidermal growth factor receptor (Homo sapiens, UniProt P00533, L858R/T790M); experiment: Inhibition of EGFR L858R/T790M (unknown origin) preincubated for 10 mins followed by substrate addition and measured after 50 mins in presence of ATP by HTRF assay
# [25] = system: HCC827; experiment: Induction of apoptosis in human HCC827 cells assessed as late apoptotic cells at 10 nM measured after 24 hrs by annexin V/PI staining based flu cytometry analysis (reference value: 5.50%); format: functional
# [26] = system: HCC827; experiment: Induction of apoptosis in human HCC827 cells assessed as viable cells at 100 nM measured after 24 hrs by annexin V/PI staining based flu cytometry analysis (reference value: 84.0%); format: functional; settings: read-out: Activity
# [27] = target: Mast/stem cell growth factor receptor Kit (Homo sapiens) (UniProt P10721); experiment: Inhibition of c-kit (unknown origin) by HTRF assay relative to control; settings: concentration not given here
# [28] = system: HCC827; experiment: Induction of apoptosis in human HCC827 cells assessed as early apoptotic cells at 100 nM measured after 24 hrs by annexin V/PI staining based flu cytometry analysis (reference value: 3.2%); format: functional
# [29] = system: HCC827; experiment: Inhibition of colony formation in human HCC827 cells at 10 to 30 nM measured after 14 days by crystal violet staining based analysis; format: functional, cell-based; settings: dose 10-30 nM, time 14.0 day
# [30] = system: HCC827; experiment: Induction of apoptosis in human HCC827 cells assessed as activation of cleaved-PARP level measured after 48 hrs by Western blot analysis; format: functional, cell-based; settings: dose 10-400 nM
# [31] = species: Homo sapiens; experiment: Inhibition of VGFR (unknown origin) by HTRF assay relative to control; settings: concentration not given here
# [32] = target: Proto-oncogene tyrosine-protein kinase Src (Homo sapiens) (UniProt P12931); experiment: Inhibition of Src (unknown origin) by HTRF assay relative to control; settings: concentration not given here
# [33] = system: HCC827; experiment: Induction of cell cycle arrest in human HCC827 cells assessed as accumulation of cells at G0/G1 phase at 10 nM measured after 24 hrs by PI staining based flow cytometry analysis (reference value: 54.36%); format: functional
# [34] = system: HCC827; experiment: Inhibition of cell migration in human HCC827 cells at 10 to 100 nM measured upto 24 hrs by scratch-wound assay; format: functional, cell-based; settings: dose 10-100 nM
# [35] = target: Proto-oncogene tyrosine-protein kinase ROS (Homo sapiens) (UniProt P08922); experiment: Inhibition of ROS (unknown origin) by HTRF assay relative to control; settings: concentration not given here
# [36] = Toxicity in BALB/c nude mouse assessed as effect on body weight loss at 10 to 50 mg/kg/day, po measured every three days for 21 days; format: organism-based; settings: in vivo, 504 h, dose 10-50 mg/kg/day, time 21 day
# Sequence of Epidermal growth factor receptor (Homo sapiens, UniProt P00533, L858R/T790M) (P00533 25-1210 T790M/L858R limits assumed): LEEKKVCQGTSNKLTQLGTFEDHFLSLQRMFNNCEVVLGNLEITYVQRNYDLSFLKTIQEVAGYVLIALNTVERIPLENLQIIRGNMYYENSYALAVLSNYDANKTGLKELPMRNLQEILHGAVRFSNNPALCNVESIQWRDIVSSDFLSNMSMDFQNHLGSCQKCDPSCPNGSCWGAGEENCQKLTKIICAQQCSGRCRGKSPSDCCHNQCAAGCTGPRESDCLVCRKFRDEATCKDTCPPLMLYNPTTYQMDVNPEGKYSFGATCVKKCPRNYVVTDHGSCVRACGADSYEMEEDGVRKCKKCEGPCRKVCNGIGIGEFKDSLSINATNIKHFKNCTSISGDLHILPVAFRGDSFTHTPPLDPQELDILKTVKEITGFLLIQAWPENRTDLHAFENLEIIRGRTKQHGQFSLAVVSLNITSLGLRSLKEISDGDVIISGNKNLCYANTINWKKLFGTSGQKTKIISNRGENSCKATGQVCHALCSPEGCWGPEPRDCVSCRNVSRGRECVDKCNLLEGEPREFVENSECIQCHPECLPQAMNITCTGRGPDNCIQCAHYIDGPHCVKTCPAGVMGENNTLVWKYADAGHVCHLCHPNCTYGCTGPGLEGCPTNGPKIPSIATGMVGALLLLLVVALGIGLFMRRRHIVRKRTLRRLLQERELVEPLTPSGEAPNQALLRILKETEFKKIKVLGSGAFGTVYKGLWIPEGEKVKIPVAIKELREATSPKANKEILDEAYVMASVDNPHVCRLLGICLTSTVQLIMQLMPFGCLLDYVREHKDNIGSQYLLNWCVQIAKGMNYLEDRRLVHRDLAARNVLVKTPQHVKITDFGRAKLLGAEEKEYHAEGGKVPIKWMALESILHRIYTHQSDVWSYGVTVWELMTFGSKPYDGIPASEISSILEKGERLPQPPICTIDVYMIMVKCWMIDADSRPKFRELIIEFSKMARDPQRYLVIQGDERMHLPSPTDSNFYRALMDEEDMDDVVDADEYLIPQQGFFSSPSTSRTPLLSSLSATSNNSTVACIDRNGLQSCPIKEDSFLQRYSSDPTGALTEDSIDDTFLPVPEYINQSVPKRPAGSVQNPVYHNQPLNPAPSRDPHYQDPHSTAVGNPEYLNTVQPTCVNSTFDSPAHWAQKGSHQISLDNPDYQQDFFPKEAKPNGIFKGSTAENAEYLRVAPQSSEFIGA
# Sequence of Mast/stem cell growth factor receptor Kit (Homo sapiens) (P10721 whole entry): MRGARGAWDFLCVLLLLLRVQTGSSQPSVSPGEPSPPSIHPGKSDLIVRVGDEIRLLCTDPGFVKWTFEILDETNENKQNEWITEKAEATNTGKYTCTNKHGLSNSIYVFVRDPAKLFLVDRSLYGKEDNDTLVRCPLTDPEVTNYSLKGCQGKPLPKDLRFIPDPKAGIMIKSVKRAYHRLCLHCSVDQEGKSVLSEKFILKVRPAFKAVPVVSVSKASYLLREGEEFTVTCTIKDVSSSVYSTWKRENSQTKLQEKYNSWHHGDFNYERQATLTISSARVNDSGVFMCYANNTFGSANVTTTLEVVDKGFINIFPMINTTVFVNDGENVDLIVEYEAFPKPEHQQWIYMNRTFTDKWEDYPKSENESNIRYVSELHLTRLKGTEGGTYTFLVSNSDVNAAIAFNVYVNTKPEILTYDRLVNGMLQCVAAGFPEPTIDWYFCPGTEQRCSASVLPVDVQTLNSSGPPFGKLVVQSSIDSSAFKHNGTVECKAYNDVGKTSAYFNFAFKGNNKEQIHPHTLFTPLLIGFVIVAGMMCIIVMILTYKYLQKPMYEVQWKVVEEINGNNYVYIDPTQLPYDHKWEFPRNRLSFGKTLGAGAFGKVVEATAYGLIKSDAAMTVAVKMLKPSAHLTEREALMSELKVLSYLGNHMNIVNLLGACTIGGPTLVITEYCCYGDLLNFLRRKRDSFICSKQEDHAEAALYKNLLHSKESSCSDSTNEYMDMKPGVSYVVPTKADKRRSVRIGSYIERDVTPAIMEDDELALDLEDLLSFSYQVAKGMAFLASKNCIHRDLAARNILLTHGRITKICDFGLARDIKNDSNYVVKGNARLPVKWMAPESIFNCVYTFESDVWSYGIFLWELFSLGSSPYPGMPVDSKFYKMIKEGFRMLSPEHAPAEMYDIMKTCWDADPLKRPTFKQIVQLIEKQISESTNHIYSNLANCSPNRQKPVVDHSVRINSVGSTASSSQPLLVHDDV
# Sequence of RAF proto-oncogene serine/threonine-protein kinase (Homo sapiens) (P04049 whole entry): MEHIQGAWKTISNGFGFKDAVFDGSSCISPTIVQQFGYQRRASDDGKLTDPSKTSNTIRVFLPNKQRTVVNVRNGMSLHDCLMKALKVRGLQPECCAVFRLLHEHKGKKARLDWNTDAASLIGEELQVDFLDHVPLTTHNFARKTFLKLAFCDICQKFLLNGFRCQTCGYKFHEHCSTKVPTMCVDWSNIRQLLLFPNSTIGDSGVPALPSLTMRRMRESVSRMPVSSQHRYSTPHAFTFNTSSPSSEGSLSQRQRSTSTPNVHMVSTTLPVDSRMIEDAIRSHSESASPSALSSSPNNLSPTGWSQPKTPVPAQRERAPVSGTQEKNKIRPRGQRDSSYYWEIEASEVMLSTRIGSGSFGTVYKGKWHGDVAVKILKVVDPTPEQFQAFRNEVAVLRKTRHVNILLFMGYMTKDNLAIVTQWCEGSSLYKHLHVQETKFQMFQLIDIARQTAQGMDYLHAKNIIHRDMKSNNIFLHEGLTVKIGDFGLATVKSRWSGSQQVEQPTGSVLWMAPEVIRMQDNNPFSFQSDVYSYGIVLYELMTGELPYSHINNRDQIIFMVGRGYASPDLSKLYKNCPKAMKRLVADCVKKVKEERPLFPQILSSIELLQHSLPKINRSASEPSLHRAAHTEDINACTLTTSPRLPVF
# Sequence of Mitogen-activated protein kinase; ERK1/ERK2 (Homo sapiens) (P27361 whole entry, looked up): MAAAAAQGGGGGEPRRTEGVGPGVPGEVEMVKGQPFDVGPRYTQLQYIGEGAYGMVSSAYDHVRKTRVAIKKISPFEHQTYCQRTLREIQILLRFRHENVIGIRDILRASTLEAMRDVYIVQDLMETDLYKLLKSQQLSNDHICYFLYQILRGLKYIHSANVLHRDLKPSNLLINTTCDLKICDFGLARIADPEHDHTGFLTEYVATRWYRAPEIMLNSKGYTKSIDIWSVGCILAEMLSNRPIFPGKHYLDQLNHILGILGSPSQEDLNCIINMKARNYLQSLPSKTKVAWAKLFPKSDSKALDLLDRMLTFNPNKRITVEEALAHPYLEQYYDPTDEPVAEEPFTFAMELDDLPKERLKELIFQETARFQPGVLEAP
# Sequence of Mitogen-activated protein kinase; ERK1/ERK2 (Homo sapiens) (P28482 whole entry, looked up): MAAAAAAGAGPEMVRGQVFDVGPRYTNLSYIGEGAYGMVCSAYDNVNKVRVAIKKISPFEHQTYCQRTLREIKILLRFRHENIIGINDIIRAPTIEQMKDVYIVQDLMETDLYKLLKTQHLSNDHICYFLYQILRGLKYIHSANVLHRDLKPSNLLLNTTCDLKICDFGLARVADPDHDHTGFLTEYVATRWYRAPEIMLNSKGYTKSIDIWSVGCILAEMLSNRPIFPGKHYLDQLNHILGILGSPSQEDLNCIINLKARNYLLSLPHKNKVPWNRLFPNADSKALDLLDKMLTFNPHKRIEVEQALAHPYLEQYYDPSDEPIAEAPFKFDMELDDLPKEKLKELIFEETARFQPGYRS
# Sequence of Epidermal growth factor receptor (Homo sapiens, UniProt P00533) (P00533 whole entry): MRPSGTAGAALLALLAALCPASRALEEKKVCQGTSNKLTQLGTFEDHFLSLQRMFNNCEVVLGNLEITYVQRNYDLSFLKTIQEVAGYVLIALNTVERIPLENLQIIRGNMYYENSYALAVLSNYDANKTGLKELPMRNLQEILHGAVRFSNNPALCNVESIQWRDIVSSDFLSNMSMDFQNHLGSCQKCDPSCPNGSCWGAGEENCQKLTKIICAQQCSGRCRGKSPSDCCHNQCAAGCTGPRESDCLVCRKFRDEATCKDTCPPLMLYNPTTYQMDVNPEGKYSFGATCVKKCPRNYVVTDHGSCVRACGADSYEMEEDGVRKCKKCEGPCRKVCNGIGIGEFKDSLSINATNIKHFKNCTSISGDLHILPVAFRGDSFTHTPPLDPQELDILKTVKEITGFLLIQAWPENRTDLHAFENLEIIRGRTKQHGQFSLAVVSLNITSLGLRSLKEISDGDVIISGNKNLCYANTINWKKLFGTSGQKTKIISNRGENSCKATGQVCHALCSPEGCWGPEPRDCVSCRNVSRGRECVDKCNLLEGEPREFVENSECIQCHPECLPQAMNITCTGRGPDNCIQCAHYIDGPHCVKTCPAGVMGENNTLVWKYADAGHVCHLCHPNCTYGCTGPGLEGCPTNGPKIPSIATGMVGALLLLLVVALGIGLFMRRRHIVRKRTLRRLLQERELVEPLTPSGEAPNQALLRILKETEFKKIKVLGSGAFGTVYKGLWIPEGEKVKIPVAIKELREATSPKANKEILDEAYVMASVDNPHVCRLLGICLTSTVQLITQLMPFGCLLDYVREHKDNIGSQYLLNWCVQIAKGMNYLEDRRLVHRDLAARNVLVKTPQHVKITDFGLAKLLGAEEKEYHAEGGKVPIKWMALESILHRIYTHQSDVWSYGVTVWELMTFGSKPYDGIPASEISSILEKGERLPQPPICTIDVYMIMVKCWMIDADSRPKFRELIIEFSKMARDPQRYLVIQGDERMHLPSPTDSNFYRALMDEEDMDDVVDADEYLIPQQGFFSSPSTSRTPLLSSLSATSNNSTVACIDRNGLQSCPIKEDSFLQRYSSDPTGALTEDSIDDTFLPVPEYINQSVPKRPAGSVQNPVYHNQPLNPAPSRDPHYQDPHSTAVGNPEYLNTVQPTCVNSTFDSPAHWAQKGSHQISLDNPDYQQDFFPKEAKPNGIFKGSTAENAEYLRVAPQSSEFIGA
smiles,measurement,setting,value
O=C(NO)c1sccc1Nc1nc(Nc2ccc(N3CCOCC3)cc2)ncc1Cl,Activity,[1],10.4%
same,inhibition,[2],< 70%
same,viability at 0.03 µM,[3],70.7%
same,Activity,[4],44.23%
same,inhibition at 0.1 µM,[5],100%
same,Activity,[6],Dose-Dependent Effect
same,inhibition,[7],Active
same,Activity,[8],7.64%
same,IC50,[9],11.8 nM
same,inhibition,[10],< 70%
same,inhibition,[11],Active
same,IC50,[12],703 nM
same,inhibition,[13],Active
same,IC50 at 72 h,[14],24600 nM
same,Activity,[15],6.5%
same,IC50,[16],24.6 nM
same,IC50,[17],16.1 nM
same,IC50,[18],168 nM
same,Activity,[19],11.4%
same,inhibition,[20],< 70%
same,Activity,[21],17.56%
same,Activity,[22],Dose-Dependent Effect
same,Activity,[23],14.3%
same,IC50,[24],43.9 nM
same,Activity,[25],6.53%
same,viability at 0.1 µM,[26],76%
same,inhibition,[27],< 70%
same,Activity,[28],3.41%
same,inhibition,[29],Active
same,Activity,[30],Dose-Dependent Effect
same,inhibition,[31],< 70%
same,inhibition,[32],< 70%
same,Activity,[33],66.03%
same,inhibition,[34],Active
same,inhibition,[35],< 70%
same,Activity,[36],Non-Toxic
